≈ marks a conversion by molar mass, not a printed value. Where two headings read alike, the source gives them in different places.
What was measured:
[1] = system: FLU-resistant C. neoformans strain BPY22; assay: microbe, parasite or virus in culture; format: cell-based; settings: for MIC: Cryptococcus neoformans, 48 h
[2] = system: FLU-sensitive (DSY4982) and FLU-resistant (BPY22 and BPY17) C. neoformans isolates; format: cell-based

`COC(=O)[C@@H]1C[C@@H]2c3cccc4c3[C@H](C[C@H]2N(C)C1)CN4C(=O)OCC(Cl)(Cl)Cl` [NGx16] was tested, and the “activity against FLU-resistant strain (in words)” value [1] was “weaker activity” and the “mechanism of inhibition (fungicidal vs fungistatic)” value [2] was “fungicidal effect”.
With `CN1C[C@H](C(=O)Nc2cccc(C(F)(F)F)c2)C[C@@H]2c3cccc4c3[C@H](C[C@H]21)CN4C(=O)OC(C)(C)C` [NGx03] the MIC ([1]; read-out: MIC-0) was 32 µg/mL (≈ 62.1 µM), the MIC ([1]; read-out: MIC-2) was 16 µg/mL (≈ 31 µM) and the “mechanism of inhibition (fungicidal vs fungistatic)” value [2] was “fungicidal effect”.
With `COC(=O)[C@@H]1C[C@@H]2c3c([N+](=O)[O-])ccc4c3[C@H](C[C@H]2N(C)C1)CN4C(=O)OCC(Cl)(Cl)Cl` [NGx19] the “activity against FLU-resistant strain (in words)” value [1] was “weaker activity”.
